According to patent publication US20210403864A1, “METHODS AND COMPOSITIONS FOR TREATING ACTIVATED G-ALPHA Q MUTANT CANCERS OR MELANOCYTIC MALIGNANCIES” (Memorial Sloan Kettering Cancer Center, priority 2018, published 2021):
Changes are numbered by the printed parent chain.

Experiments:
[1] = test system: human Mel202 uveal melanoma xenografts; test: In vivo anti-tumor activity, xenografts in SCID mice; conditions: MEK162 10 mg/kg P.O. b.i.d.; YM-254890 2.5 mg/kg i.p. q.d.; over 20 days; single agents vs vehicle, combination vs vehicle and single agents
Experimental: To evaluate the effect of YM-254890 and binimetinib (MEK162) in vivo, Mel202 uveal melanoma xenografts were established in SCID mice, and the mice were treated with vehicle only, 10 mg/kg MEK162 (P.O., b.i.d.), YM-254890 (2.5 mg/kg i.p., q.d.) or a combination of MEK162 and YM-254890. Tumor volumes were measured over 20 days.

GNAQ^G48V = target: T1, GNAQ^G48V (Homo sapiens, UniProt P50148, G48V); test: IP1 accumulation assay in mutation dependent melan-a cells; type: cell-based, mouse
T1 construct: host or cells: melan-a (immortalized mouse melanocytes), retroviral transduction with MSCV-Puro
T1 sequence (P50148 1-359 G48V): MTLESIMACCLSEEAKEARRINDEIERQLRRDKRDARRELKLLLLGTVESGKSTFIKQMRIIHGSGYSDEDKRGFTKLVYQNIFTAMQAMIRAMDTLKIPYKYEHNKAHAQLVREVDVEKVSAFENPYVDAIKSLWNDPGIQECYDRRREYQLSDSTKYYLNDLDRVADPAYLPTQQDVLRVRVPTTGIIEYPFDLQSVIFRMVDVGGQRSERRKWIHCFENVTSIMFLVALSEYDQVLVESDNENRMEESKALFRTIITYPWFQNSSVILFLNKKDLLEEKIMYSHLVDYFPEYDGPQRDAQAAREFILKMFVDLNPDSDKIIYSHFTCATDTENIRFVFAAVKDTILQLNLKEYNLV
Experimental: (§1) Cells were treated with increasing concentrations of YM-254890 (YM) for 3 hours (top) and 24 hours (bottom). Error bars, s.e.m. from three biological replicates, each with three technical replicates.
(§2) Cell Culture and in vitro analysis. Mutation dependent melan-a cells were generated by transducing cells with cDNAs in MSCV-PURO (retrovirus) and then selecting cells with puromycin (1 μg/ml) for two days. TPA (Sigma-Aldrich, St. Louis, Mo.) was then withdrawn from cultures. Cells with activating mutations (CYSLTR2^L129Q, GNAQ^G48V/R183Q/Q209L, KRAS^G12V, and BRAF^V600E) continued to proliferate over several passages (>2 weeks) and were then validated with qRT-PCR and immunoblots. Vector and WT controls were unable to maintain proliferation after a couple passages upon TPA withdrawal. All cells were cultured in media containing 10% FBS, L-glutamine ([…]), penicillin (100 U/ml), streptomycin (100 μg/ml). Melan-a cells provided by D. Bennett, St. George's Hospital, University of London (Johnson C P, et al., PLoS One. 12(6):1-17 (2017)), were cultured in RPMI supplemented with 200 nM TPA unless otherwise noted. HEK293T (from ATCC, Manassas, Va.) cells were cultured in DMEM-Q and UVM cells were cultured in RPMI. All cells tested negative for mycoplasma. Cell growth assays and YM dose response curves were assayed using CellTiter-glo 2.0 (Promega, Madison, Wis.) at given time points or after five days of incubation with YM and readout on a Glomax Luminometer (Promega, Madison, Wis.). IC50 values were calculated using Prism 7.0 software. Growth assays were compared to day 1 readings and dose response curves were compared to vehicle. Data shown is representative of at least three independent experiments with at least three technical replicates. Dose-response curves and growth assays were analyzed using GraphPad Prism 7.0 software.
(§3) IP1 Accumulation Assay. IP1 concentrations in GNAQ-transfected HEK293T cells, GNAQ-expressing melan-a cells and uveal melanoma cells was measured using a competitive homogenous time resolved fluorescence (HTRF) assay (CisBio, Bedford, Mass.). Briefly, 9,000 transiently transfected-HEK293T cells, 5,000 melan-a cells and 5,000 uveal melanoma cells were seeded in low-volume 384-well plates in 7 μL media for 24 hours prior YM-254890 treatment. Cells were then treated with various concentrations of YM-254890 diluted in the appropriate media at 37° C. for 3 hours or 24 hours. 1 h prior lysis, cells were supplemented with 1× Stimulation Buffer provided by the manufacturer (HEPES 10 mM, CaCl2) 1 mM, MgCl2 0.5 mM, KCl 4.2 mM, NaCl 146 mM, glucose 5.5 mM, LiCl 50 mM, pH 7.4) with 0.2% BSA and 50 mM of LiCl (to prevent IP1 degradation). Following incubation, cells were lysed by adding 3 μL/well of d2-labeled IP1 analogue as the fluorescence acceptor and the Terbium cryptate-labeled anti-IP1 mAb as the fluorescence donor, diluted in the kit-supplied lysis buffer. The plates were incubated overnight at RT and time-resolved fluorescence signals were read using the BioTek Synergy NEO plate reader (BioTek Instruments, Winooski, Vt.) at 620 nm and […]. Results were calculated as a 665 nm/620 nm signal ratio, and IP1 concentrations were interpolated from a standard curve prepared using the supplied IP1 calibrator. Results are shown as IP1 (nM). Dose-response curves and bar graphs were analyzed using GraphPad Prism 7.0 software.

GNAQ^Q209L = target: T2, GNAQ^Q209L (Homo sapiens, UniProt P50148, Q209L); test: as above; type: cell-based, mouse
T2 construct: host or cells: melan-a (immortalized mouse melanocytes), retroviral transduction with MSCV-Puro
T2 sequence (P50148 1-359 Q209L): T1 sequence (P50148 1-359 G48V) with V48G, Q209L
Experimental: as §1, §2, §3

CYSLTR2^L129Q = test: as above; type: cell-based, mouse; conditions: 24-hour treatment
Experimental: as §1, §2, §3

## YM-254890
[1]
  tumor volume: moderate reduction
GNAQ^G48V; 24-hour treatment
  inhibition of IP1 accumulation: completely inhibited
  relative sensitivity to YM (IP1 accumulation): most sensitive
GNAQ^G48V; 3 hours of treatment
  sensitivity of IP1 accumulation after 3 hours versus 24 hours: less sensitive
GNAQ^Q209L; 24-hour treatment
  fold less sensitive than CYSLTR2^L129Q and GNAQ^G48V mutants (IP1 accumulation): approximately 10 fold
  inhibition of IP1 accumulation: completely inhibited
GNAQ^Q209L; 3 hours of treatment
  sensitivity of IP1 accumulation after 3 hours versus 24 hours: less sensitive
GNAQ^Q209L; 3 hours of treatment, even at high doses of YM
  inhibition of IP1 accumulation: only partially inhibited
CYSLTR2^L129Q
  inhibition of IP1 accumulation: completely inhibited
  relative sensitivity to YM (IP1 accumulation): most sensitive
